Measured values published in ChEMBL document CHEMBL1201862, “PubChem BioAssay data set” (2004).
Activity calls are given as the source filed them.

Assays:
[1] = target: T1, Dual specificity protein phosphatase 3 (Homo sapiens, UniProt P51452); assay: SAR VHR1 absorbance Assay for In Vitro dose response studies. [Related pubchem assays (depositor defined):AID1654, AID1661, AID1878, AID1992, AID2004]
[2] = target: T1, Dual specificity protein phosphatase 3; assay: SAR VHR1 Fluorescent Assay for In Vitro dose response studies. [Related pubchem assays (depositor defined):AID1654, AID1661, AID1878, AID1992, AID2004, AID2070, AID2085]; assay type: functional
[3] = target: T1, Dual specificity protein phosphatase 3; assay: SAR VHR1 Fluorescent Assay for In Vitro dose response studies Set 2. [Related pubchem assays (depositor defined):AID1654, AID1661, AID1878]; assay type: functional
Vero = assay: viability of Vero cells under compound – cytotoxicity control for flavivirus capping enzyme inhibitors (AID 588742); assay type: functional; conditions: Chlorocebus sabaeus
[4] = target: T2, Dual specificity protein phosphatase 6 (Rattus norvegicus, UniProt Q64346); assay type: functional;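 also: confirmatory in vitro dose-response testing of MKP-3 inhibition; recombinant His-tagged MKP-3 made in E. coli BL21 with OMFP substrate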
T2 sequence (Q64346 whole entry): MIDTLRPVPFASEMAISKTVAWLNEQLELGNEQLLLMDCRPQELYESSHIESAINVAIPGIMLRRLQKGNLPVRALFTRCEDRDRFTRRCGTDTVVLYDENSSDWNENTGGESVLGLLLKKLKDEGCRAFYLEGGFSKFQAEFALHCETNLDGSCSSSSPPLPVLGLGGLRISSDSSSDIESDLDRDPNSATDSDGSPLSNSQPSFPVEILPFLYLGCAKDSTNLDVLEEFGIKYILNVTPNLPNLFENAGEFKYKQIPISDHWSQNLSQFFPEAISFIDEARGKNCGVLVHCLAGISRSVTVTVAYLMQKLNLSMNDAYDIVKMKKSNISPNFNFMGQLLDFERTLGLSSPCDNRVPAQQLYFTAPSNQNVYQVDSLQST

[5] = target: T3, Probable nicotinate-nucleotide adenylyltransferase (Staphylococcus aureus (strain N315), UniProt P65502); assay type: functional, Staphylococcus aureus subsp. aureus N315;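 as to IC50 Mean: confirmatory dose-response retesting of NadD inhibitor hits first found in an ultra-high-throughput screen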
T3 sequence (P65502 whole entry): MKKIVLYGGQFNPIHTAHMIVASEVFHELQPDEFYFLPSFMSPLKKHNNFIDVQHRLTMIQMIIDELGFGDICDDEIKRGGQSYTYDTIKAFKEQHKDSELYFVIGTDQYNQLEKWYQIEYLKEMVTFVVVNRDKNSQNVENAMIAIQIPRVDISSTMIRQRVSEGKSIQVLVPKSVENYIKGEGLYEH

[6] = target: T3, Probable nicotinate-nucleotide adenylyltransferase; assay type: functional, Staphylococcus aureus subsp. aureus N315; conditions: read-out: IC50_Mean
Fatty acid synthase [7] = target: T4, Fatty acid synthase (Homo sapiens, UniProt P49327); assay: inhibition of human FAS-TE enzyme activity – biochemical, endpoint fluorescence intensity, uHTS hits, dose response (AID 624327); assay type: functional;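 also: fluorescence from hydrolysis of an O-methyl fluorescein acyl ester substrate by the enzyme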
T4 sequence (P49327 whole entry): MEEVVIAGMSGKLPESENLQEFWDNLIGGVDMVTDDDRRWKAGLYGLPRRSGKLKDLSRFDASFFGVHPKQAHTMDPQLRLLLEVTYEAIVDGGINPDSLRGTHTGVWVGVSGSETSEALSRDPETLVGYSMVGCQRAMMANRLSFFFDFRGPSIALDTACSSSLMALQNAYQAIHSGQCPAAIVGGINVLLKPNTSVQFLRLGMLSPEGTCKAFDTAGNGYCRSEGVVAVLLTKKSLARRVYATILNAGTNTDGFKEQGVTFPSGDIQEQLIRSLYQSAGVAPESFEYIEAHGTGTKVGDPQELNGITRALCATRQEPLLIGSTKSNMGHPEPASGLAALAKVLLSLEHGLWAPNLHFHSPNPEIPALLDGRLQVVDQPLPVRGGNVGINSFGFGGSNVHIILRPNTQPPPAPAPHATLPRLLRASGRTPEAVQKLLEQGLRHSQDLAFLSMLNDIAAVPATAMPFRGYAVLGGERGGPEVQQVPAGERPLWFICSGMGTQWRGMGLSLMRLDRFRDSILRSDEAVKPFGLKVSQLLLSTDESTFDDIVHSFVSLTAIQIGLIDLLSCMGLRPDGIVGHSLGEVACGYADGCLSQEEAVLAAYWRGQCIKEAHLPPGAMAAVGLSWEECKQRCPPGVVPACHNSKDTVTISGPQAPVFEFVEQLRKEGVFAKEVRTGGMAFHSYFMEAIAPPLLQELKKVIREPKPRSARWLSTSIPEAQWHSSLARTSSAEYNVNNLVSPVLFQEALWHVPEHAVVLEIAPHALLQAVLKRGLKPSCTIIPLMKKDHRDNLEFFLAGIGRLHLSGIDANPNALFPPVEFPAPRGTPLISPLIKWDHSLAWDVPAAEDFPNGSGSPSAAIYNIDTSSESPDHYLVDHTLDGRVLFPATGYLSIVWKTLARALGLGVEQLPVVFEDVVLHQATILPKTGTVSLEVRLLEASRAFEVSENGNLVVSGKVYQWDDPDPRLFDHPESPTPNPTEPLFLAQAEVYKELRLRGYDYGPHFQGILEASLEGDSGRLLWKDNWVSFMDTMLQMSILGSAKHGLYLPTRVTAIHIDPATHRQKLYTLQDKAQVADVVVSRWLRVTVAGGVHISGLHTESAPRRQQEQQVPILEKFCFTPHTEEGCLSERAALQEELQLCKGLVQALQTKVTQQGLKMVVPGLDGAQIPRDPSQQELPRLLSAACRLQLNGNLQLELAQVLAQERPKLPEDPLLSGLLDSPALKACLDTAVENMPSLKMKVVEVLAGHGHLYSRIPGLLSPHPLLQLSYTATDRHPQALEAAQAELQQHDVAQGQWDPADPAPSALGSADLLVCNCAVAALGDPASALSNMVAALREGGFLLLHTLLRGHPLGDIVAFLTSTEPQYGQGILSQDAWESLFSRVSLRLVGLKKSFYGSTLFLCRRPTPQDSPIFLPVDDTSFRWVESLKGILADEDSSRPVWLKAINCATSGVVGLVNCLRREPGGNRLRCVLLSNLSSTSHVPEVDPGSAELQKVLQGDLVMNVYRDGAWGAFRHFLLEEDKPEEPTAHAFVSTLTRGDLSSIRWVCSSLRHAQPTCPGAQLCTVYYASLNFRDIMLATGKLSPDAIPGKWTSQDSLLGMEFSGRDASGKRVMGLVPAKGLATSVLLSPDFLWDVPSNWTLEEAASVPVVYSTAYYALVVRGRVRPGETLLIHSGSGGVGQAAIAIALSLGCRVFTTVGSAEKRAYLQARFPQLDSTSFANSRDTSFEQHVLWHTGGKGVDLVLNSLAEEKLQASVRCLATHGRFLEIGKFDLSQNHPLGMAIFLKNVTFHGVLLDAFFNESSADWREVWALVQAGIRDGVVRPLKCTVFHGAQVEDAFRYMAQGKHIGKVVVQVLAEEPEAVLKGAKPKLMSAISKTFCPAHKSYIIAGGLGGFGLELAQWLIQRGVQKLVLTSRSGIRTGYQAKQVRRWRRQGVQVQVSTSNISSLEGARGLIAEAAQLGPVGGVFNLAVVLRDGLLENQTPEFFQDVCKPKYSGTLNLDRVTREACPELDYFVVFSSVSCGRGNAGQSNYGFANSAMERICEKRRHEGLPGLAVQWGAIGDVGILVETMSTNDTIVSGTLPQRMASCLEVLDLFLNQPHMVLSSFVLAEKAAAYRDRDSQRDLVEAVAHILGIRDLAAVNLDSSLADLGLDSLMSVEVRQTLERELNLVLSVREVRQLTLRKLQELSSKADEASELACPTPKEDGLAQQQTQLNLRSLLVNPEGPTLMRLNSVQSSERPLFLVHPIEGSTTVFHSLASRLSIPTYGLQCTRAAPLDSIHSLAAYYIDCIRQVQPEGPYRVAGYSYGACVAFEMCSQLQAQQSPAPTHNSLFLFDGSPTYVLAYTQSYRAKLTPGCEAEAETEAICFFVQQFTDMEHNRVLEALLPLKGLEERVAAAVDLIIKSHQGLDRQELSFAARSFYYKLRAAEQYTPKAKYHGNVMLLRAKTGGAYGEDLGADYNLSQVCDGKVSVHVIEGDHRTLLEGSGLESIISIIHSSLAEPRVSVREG

Fatty acid synthase [8] = target: T4, Fatty acid synthase; assay: inhibition of human FAS-TE enzyme activity – biochemical, kinetic fluorescence intensity, dose response (AID 624326); assay type: functional;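 also: rate of fluorescence rise from hydrolysis of a fluorogenic O-methyl fluorescein ester substrate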
[9] = target: Glucose-6-phosphate 1-dehydrogenase (Homo sapiens, UniProt P11413); assay: inhibition of Homo sapiens G6PD, dose series – biochemical, fluorescence, selectivity assay for P. falciparum G6PD inhibitor project, dose response (AID 504792); assay type: functional
Glucose-6-phosphate 1-dehydrogenase, sequence (P11413 whole entry): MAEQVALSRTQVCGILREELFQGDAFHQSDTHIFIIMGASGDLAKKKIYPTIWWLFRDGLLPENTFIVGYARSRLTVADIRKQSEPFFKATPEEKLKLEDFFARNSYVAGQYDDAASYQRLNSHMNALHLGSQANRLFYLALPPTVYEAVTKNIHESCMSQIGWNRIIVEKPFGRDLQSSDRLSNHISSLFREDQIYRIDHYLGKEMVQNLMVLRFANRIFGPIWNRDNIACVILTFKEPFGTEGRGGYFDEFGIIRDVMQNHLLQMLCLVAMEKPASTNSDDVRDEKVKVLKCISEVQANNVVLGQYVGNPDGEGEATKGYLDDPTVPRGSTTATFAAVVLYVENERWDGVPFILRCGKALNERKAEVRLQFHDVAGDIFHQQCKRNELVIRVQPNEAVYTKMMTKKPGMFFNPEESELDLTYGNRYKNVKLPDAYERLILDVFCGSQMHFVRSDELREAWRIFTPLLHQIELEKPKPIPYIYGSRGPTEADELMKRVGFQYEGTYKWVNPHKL

[10] = target: T5, Replicative DNA helicase DnaB (Mycobacterium tuberculosis, UniProt P9WMR3); assay: DnaB intein splicing inhibitors, dose response, biochemical, cell-free fluorescence (AID 449749); assay type: functional
T5 sequence (P9WMR3 whole entry): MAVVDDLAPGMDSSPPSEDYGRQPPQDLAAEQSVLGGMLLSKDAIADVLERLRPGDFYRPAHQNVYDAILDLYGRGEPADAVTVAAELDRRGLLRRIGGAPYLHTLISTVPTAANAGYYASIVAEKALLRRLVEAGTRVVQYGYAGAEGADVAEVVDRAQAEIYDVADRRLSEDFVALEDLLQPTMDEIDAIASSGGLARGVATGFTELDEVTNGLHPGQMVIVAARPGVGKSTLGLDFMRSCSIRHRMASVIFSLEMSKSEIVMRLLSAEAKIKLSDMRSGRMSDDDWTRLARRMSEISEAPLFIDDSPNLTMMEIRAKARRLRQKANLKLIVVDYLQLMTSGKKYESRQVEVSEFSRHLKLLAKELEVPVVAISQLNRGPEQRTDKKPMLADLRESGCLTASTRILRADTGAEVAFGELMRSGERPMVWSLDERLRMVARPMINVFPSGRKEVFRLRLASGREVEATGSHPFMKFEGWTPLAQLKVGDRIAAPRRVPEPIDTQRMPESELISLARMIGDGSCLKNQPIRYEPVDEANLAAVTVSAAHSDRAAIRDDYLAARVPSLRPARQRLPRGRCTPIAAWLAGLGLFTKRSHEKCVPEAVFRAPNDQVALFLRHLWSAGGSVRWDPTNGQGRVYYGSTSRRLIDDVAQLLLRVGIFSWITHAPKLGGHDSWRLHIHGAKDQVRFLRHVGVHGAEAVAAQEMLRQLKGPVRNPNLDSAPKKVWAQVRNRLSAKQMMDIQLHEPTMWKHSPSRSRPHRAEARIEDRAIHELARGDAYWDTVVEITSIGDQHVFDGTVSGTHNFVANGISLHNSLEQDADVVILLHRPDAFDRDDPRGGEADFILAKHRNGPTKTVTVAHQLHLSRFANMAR

[11] = target: T6, Apoptotic protease-activating factor 1 (Homo sapiens, UniProt O14727); assay: activation of Apaf-1 mediated apoptosis – fluorescent, uHTS hits, dose response (AID 588554); assay type: functional
T6 sequence (O14727 whole entry): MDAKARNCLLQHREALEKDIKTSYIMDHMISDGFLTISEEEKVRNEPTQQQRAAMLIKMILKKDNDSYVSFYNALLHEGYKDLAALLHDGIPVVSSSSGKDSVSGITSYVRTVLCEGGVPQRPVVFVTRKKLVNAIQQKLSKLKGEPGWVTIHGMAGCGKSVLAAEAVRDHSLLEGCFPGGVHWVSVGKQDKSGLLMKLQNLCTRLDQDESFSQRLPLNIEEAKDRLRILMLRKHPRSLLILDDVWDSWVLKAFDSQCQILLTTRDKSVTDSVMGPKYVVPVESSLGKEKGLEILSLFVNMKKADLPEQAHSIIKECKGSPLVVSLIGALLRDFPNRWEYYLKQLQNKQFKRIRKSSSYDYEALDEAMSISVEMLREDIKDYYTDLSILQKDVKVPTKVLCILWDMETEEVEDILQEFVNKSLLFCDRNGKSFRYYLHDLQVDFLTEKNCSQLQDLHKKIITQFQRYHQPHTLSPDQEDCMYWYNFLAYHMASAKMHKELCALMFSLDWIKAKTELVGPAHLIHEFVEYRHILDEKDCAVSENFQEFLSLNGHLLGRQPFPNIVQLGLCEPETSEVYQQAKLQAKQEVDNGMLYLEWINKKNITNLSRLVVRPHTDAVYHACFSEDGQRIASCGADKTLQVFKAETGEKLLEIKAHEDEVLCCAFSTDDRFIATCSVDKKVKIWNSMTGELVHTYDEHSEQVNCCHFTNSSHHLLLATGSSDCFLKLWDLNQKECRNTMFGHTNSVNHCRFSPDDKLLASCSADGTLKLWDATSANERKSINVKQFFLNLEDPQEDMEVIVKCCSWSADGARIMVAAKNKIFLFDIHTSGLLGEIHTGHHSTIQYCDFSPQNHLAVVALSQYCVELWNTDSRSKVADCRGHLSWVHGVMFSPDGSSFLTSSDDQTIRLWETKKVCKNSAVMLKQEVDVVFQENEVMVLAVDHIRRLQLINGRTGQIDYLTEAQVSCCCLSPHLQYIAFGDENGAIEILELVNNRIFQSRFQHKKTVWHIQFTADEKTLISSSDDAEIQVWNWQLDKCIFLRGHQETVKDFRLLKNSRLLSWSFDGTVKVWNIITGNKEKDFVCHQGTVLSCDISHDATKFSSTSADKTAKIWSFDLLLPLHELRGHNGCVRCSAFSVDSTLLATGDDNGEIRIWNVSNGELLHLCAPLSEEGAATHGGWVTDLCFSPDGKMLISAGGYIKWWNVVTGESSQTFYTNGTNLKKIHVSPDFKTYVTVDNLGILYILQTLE

Protein RecA = target: T7, Protein RecA (Mycobacterium tuberculosis, UniProt P9WHJ3); assay: Fluorescence Cell-Free Homogeneous Dose Retest to Identify Inhibitors of RecA-Intein Splicing Activity. [Related pubchem assays (depositor defined):AID2097, AID2223, AID489010, AID492950]; assay type: functional
T7 sequence (P9WHJ3 whole entry): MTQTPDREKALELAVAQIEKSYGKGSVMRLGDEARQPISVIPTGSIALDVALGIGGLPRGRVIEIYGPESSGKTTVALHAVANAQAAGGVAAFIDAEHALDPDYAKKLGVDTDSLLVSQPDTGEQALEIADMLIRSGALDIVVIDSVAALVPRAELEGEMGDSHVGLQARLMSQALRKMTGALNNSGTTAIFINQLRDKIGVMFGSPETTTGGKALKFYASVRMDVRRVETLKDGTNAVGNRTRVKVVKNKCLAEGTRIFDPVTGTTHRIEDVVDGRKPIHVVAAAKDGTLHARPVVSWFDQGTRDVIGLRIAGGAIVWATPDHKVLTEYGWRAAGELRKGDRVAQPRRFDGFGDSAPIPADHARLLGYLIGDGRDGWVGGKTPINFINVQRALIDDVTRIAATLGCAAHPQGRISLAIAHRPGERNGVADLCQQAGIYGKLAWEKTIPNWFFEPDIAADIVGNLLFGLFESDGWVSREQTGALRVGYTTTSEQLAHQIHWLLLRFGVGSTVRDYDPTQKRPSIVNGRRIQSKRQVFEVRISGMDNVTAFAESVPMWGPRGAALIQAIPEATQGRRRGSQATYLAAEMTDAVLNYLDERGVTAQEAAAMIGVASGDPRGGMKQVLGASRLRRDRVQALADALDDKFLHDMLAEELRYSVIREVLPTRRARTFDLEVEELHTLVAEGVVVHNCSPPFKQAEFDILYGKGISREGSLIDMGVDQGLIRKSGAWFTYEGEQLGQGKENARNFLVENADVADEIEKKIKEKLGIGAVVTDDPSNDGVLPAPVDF

[12] = target: T8, Polyadenylate-binding protein 1 (Homo sapiens, UniProt P11940); assay: MLLE binding blockers, Cy5 peptide tracer – biochemical, fluorescence polarization, Cy5-PAM2 peptide, secondary, miRNA deadenylation inhibitor project, dose response (AID 602260); assay type: functional; conditions: read-out: IC50_Mean
T8 sequence (P11940 whole entry): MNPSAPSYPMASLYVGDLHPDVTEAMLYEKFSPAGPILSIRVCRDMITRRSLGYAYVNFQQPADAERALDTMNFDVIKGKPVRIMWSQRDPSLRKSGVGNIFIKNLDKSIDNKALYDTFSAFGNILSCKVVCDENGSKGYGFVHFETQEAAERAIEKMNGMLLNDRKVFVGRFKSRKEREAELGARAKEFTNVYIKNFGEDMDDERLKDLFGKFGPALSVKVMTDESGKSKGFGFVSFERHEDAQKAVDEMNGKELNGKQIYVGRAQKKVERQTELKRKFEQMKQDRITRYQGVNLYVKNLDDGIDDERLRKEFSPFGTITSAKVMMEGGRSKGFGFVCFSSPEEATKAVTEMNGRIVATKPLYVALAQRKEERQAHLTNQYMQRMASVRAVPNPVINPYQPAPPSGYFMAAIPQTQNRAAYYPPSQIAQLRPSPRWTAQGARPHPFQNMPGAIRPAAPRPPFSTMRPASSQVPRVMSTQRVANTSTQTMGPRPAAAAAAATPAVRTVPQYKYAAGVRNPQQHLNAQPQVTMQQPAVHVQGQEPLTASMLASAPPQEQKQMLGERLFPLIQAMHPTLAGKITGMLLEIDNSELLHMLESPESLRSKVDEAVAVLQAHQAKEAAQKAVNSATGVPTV

[13] = target: T6, Apoptotic protease-activating factor 1; assay: SAR analysis of small molecule Activators of Apaf-1 in a Fluorescent assay.; assay type: functional; conditions: read-out: EC50_Mean
[14] = target: T8, Polyadenylate-binding protein 1; assay: MLLE domain peptide-binding blockers, IC50 – biochemical, fluorescence polarization, FITC-PAM2 peptide, dose response (AID 602259); assay type: functional; conditions: read-out: IC50_Mean
Caspase-6 = target: T9, Caspase-6 (Homo sapiens, UniProt P55212); assay: inhibition of CASP6 peptide cleavage – biochemical, VEID-R110 fluorescence, cherry-pick, dose response (AID 720632)
T9 sequence (P55212 whole entry): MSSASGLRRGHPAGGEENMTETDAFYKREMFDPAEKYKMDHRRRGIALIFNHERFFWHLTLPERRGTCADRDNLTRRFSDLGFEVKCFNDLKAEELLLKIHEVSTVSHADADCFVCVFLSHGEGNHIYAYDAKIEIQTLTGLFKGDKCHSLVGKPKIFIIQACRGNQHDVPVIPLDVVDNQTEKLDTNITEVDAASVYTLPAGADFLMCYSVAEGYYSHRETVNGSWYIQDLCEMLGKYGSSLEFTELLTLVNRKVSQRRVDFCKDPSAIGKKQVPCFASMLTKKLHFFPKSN

Caspase-7 = Caspase-7 (Homo sapiens, UniProt P55210); assay: caspase-7 enzyme inhibition, selectivity check – biochemical, DEVD-R110 fluorescence, cherry-pick, selectivity assay for caspase-6 inhibitor project, dose response (AID 743295); assay type: functional
Caspase-7, sequence (P55210 24-198 limits assumed): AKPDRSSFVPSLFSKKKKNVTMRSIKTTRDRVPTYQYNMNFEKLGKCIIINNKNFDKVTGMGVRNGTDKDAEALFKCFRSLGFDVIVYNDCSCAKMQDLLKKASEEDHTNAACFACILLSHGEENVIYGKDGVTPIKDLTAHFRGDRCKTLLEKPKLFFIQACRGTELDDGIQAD
Caspase-7, sequence (P55210 207-303 limits assumed): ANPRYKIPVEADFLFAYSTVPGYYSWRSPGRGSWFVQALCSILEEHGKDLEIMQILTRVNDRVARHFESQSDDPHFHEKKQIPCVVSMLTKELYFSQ
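For EC50 Mean in this document: caspase-3 cleavage of fluorogenic Rh110 DEVD substrate downstream of apoptosome activation.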

T1 sequence (P51452 whole entry): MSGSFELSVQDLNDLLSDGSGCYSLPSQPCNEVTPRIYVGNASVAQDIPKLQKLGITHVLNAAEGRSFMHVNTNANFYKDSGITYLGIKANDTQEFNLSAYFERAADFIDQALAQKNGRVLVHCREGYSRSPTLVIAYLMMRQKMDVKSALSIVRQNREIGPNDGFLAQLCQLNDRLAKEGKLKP

| Compound | IC50 [1] | IC50 [2] | IC50 [3] | CC50 (Vero) | IC50 [4] | IC50 [5] | IC50 [6] | IC50 (Fatty acid synthase [7]) | IC50 (Fatty acid synthase [8]) | IC50 [9] | AC50 [10] | EC50 [11] | EC50 (Protein RecA) | IC50 [12] | EC50 [13] | IC50 [14] | AC50 (Caspase-6) | AC50 (Caspase-7) |
| --- | --- | --- | --- | --- | --- | --- | --- | --- | --- | --- | --- | --- | --- | --- | --- | --- | --- | --- |
| O=C(O)CSc1cc(C(=O)c2ccccc2O)cn2c(=O)c3c(-c4ccccc4)csc3nc12 | 1.93 µM (active) | 14.6 µM (active) | 12.3 µM (active) | 38.8 µM (active) | 13.2 µM (active) | 7.1 µM (active) | 28.4 µM (active) | 4.85 µM (active) | 4.3 µM (active) | – | – | – | – | – | – | – | – | – |
| CC(CNc1ccccc1O)C(=O)O (stereo not drawn) | – | – | – | – | – | – | – | – | – | > 80 µM (inactive) | 28.7 µM (active) | 14 µM (active) | 7.79 µM (active) | > 66 µM (inactive) | > 100 µM (inactive) | > 66 µM (inactive) | 3.52 µM (active) | > 70 µM (inactive) |
